Data reported in patent publication US20260083851A1 (AVILAR THERAPEUTICS, INC., priority 2022, published 2026).

Target: T1, ASGP receptor (biotinylated ASGPR) (Homo sapiens, UniProt P07306)
T1 construct: biotin (biotinylated)
T1 sequence (P07306 1-291): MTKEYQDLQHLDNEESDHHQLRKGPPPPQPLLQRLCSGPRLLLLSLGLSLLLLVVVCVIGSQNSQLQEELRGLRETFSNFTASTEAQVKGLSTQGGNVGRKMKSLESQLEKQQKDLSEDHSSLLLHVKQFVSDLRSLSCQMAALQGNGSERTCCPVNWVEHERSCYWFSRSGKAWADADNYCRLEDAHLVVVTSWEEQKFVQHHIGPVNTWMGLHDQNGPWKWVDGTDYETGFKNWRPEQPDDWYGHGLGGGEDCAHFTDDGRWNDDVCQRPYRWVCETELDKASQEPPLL
Format: binding
Settings: SPR, Biacore 8K, 25° C.; Table 1A; read-out: ASGPR KD

Kd [µM] | Structure (SMILES)
< 10 | O=C(O)c1ccc(N2CCC(CN3CCN(C[C@H]4OC[C@H](Nc5cncc(C(F)(F)F)n5)[C@@H](O)[C@H]4O)CC3)CC2)cc1 [A31, 4-(4-((4-(((2R,3R,4R,5S)-3,4-dihydroxy-5-((6-(trifluoromethyl)pyrazin-2-yl)amino)tetrahydro-2H-pyran-2-yl)methyl)piperazin-1-yl)methyl)piperidin-1-yl)benzoic acid]
< 10 | O[C@@H]1[C@H](O)[C@@H](Nc2cncc(C(F)(F)F)n2)CO[C@@H]1COc1cnccn1 [A60, (2R,3R,4R,5S)-2-((pyrazin-2-yloxy)methyl)-5-((6-(trifluoromethyl)pyrazin-2-yl)amino)tetrahydro-2H-pyran-3,4-diol]
< 10 | O=C(NC[C@H]1OC[C@H](Nc2cncc(C(F)(F)F)n2)[C@@H](O)[C@H]1O)c1ccc(-c2ccccc2)cc1 [A10, N-(((2R,3R,4R,5S)-3,4-dihydroxy-5-((6-(trifluoromethyl)pyrazin-2-yl)amino)tetrahydro-2H-pyran-2-yl)methyl)-[1,1′-biphenyl]-4-carboxamide]
< 10 | O=C(O)c1cnc(C(=O)NC[C@H]2OC[C@H](Nc3cncc(C(F)(F)F)n3)[C@@H](O)[C@H]2O)nc1 [A84, 2-((((2R,3R,4R,5S)-3,4-dihydroxy-5-((6-(trifluoromethyl)pyrazin-2-yl)amino)tetrahydro-2H-pyran-2-yl)methyl)carbamoyl)pyrimidine-5-carboxylic acid]
< 10 | O=C(NC[C@H]1OC[C@H](Nc2cncc(C(F)(F)F)n2)[C@@H](O)[C@H]1O)c1ccccn1 [A74, N-(((2R,3R,4R,5S)-3,4-dihydroxy-5-((6-(trifluoromethyl)pyrazin-2-yl)amino)tetrahydro-2H-pyran-2-yl)methyl)picolinamide]

Same assay, conditions: SPR, Biacore 8K, 25° C.; Table 1B; read-out: ASGPR Kd

Kd [µM] | Structure (SMILES)
< 10 | OC[C@H]1OC[C@H](Sc2cccc(C(F)(F)F)n2)[C@@H](O)[C@H]1O [A161, (2R,3R,4S,5S)-2-(hydroxymethyl)-5-((6-(trifluoromethyl)pyridin-2-yl)thio)tetrahydro-2H-pyran-3,4-diol]

Same assay, conditions: SPR, Biacore 8K, 25° C.; Table 1C, numeric bound; read-out: ASGPR KD

Kd [µM] | Structure (SMILES)
> 30 | OC[C@H]1O[C@@H](c2ccccc2)[C@H](Oc2cccc(C(F)(F)F)n2)[C@@H](O)[C@H]1O [A208, (2R,3R,4S,5R,6S)-2-(hydroxymethyl)-6-phenyl-5-((6-(trifluoromethyl)pyridin-2-yl)oxy)tetrahydro-2H-pyran-3,4-diol]

Same assay, conditions: SPR, Biacore 8K, 25° C.; Table 1C; read-out: ASGPR KD

Kd [µM] | Structure (SMILES)
< 10 | O=C(O)c1ccc(-c2ccc(OC[C@H]3OC[C@H](Oc4cccc(C(F)(F)F)n4)[C@@H](O)[C@H]3O)cc2)cc1 [A228, 4′-(((2R,3R,4S,5S)-3,4-dihydroxy-5-((6-(trifluoromethyl)pyridin-2-yl)oxy)tetrahydro-2H-pyran-2-yl)methoxy)-[1,1′-biphenyl]-4-carboxylic acid]
< 10 | O=C1CCCN1C[C@H]1OC[C@H](Nc2cccc(C(F)(F)F)n2)[C@@H](O)[C@H]1O [A285]
< 10 | C[C@H]1O[C@H](c2cccc3ccccc23)[C@H](Oc2cccc(C(F)(F)F)n2)[C@@H](O)[C@H]1O [A342]
< 10 | O[C@@H]1[C@H](O)[C@@H](Oc2cccc(C(F)(F)F)n2)CO[C@@H]1CN1CCc2ccccc2C1 [A254]
< 10 | COC(=O)/C=C/[C@H]1O[C@H](C)[C@H](O)[C@H](O)[C@H]1Oc1cccc(C(F)(F)F)n1 [A333]
< 10 | O[C@@H]1[C@H](O)[C@@H](Nc2cncc(C(F)(F)F)n2)CO[C@@H]1c1cn(-c2ccccc2)nn1 [A201, (2R,3R,4R,5S)-2-(1-phenyl-1H-1,2,3-triazol-4-yl)-5-((6-(trifluoromethyl)pyrazin-2-yl)amino)tetrahydro-2H-pyran-3,4-diol]
< 10 | O[C@@H]1[C@H](O)[C@@H](Oc2cccc(C(F)(F)F)n2)CO[C@@H]1COc1ccc(Br)c(F)c1 [A198, (2R,3R,4S,5S)-2-((4-bromo-3-fluorophenoxy)methyl)-5-((6-(trifluoromethyl)pyridin-2-yl)oxy)tetrahydro-2H-pyran-3,4-diol]

Same assay, conditions: SPR, Biacore 8K, 25° C.; Table 1D; read-out: ASGPR KD

Kd [µM] | Structure (SMILES)
< 10 | Cc1nnc(N2C[C@H](Oc3cccc(C(F)(F)F)n3)[C@@H](O)[C@@H](O)C2)s1 [A351]
